Laboratory results: PMC4428838, “Optimization of Invasion-Specific Effects of Betulin Derivatives on Prostate Cancer Cells through Lead Development” (PLoS ONE, 2015)

Legend:
Assay type in all cases: cell-based
[1] = tested on: PC-3 cells; assay: Primary 3D screen in Matrigel ECM, morphometric image analysis (AMIDA) of invasion, growth and cell death; conditions: PC-3 in 3D Matrigel; for anti-invasive effects in 3D culture (in words): 0.03-1 μM
Description: Three standard of care compounds widely used against PrCa were added as controls; namely, the androgen receptor antagonist enzalutamide (MDV3100), the C17α-hydroxylase/C17,20-lyase inhibitor abiraterone (Zytiga), and the classic mitotic inhibitor paclitaxel. Treatments started at day 4, when well-differentiated round acini were established.
The live 3D cell cultures were then stained with reactive dyes Calcein AM to detect living, and ethidium homodimer to detect dead cells. Images (Fig 4A) were acquired with confocal microscope and image data were analyzed with the AMIDA software. The principles of morphometric image analysis are briefly outlined in S2 Fig.
Fig 4 Primary 3D screen. PC-3 cells were cultured in 3D Matrigel ECM for 4 days and treated for 6 days with 25 betulin derivatives (from 2D high throughput screens), DMSO/vehicle control, and three reference compounds. A) Representative maximum intensity projections of confocal microscope stack images for selected compound treatments at 300 nM concentration (5× objective, scale 100 μm). B) Three graphs showing the relative impact on three morphometric parameters for 7 betulin derivatives, DMSO control, and one control compound (paclitaxel). […] C) Hierarchical clustering was done using three morphological parameters derived from PC3 organoids: spheroid size (area), complexity and the number of dead cells. D) Wound healing curves of the two betulin derivatives 4 and 20, highlighting the 50% cut-off level (orange dashed line).
Next, statistical analyses were performed to interpret the complex image data (Fig 4B and 4C). For simplicity, we focused on only three, basic morphologic parameters from the multiparametric AMIDA readout (Fig 4B): 1) Area (indicating growth of organoids), 2) structural Complexity (as a measure of the intensity of invasion), and 3) Relative Area of dead cells within organoids (red signal as a measure of cytoxicity or apoptosis). Area (Size of organoids; Fig 4B, upper panel) was measured as the number of pixels within a segmented structure. […] Shape Complexity (Fig 4B, middle panel) was obtained using the structure size (area) and perimeter (number of border pixels). The more regular the shape of an organoid, the closer it is to a perfect circle, thus minimizing the perimeter relative to object size. […] Deviations from this average (residuals) were interpreted as a measure for the shape complexity of organoids. As a logical lower limit for this measure (represented by a perfect circle), we adjusted the intercept (height level) of the regression line to render all returned residuals as positive numbers.
All 3D cultures were done in growth factor-free Matrigel Basement-membrane Matrix (Corning Inc., New York, NY, USA) using 96-well Angiogenesis μ-plates (ibidi GmbH, Munich, Germany) as described before.[38] “Sandwich” assays in short: bottom wells of cooled Angiogenesis plates were filled with 10 μL 4 mg/mL Matrigel, centrifuged for 20 min 200 g and incubated at 37°C temperature for approximately 30–60 min or until the ECM had polymerized. 1,000–1,500 cells were mixed in 2 mg/mL ECM-medium, and 20 μL of cell suspension was added in each well. The plates were centrifuged for 10 min at 100 g, or until the cells had settled on top of the lower ECM. Finally, the outer wells and side reservoirs were filled with water for humidification, and the culture plates placed into the incubator for 3–4 h or overnight. The following day, 60 μL of cell culture medium were added; refreshed every third day by carefully aspirating the medium.

[2] = tested on: Ep156T cell line; assay: Secondary 3D screen (spheroid size, complexity, cell death); conditions: at the highest concentration
Text: (§1) Next, the 25 selected betulin derivatives depicted in Figs 1–3 including control compounds were again thoroughly tested across the same panel of prostate-derived cell lines already used in the preliminary, 2D high-throughput screen. The resulting dendrograms were either generated separately for each cell line (S4 Fig), combined into a single dendrogram (Fig 5A), or shown as reduced organoid sizes (area; Fig 5B).
(§2) Fig 5 Secondary 3D screens. Experimental betulin derivatives and control compounds were tested across a panel of prostate cancer lines (LNCaP, LAPC-4) and non-transformed, prostate epithelial cells (EP156T) in 3D culture. A) The dendrogram is based on three main morphological parameters and combines all data from primary and secondary 3D screens. […] B) Boxplots showing the impact of selected compounds on spheroid size (Area). Data scaling: as described in Fig 4 C) Effects of all betulin derivatives and control compounds on cell death (number of dead cells).
(§3) All 3D cultures were done in growth factor-free Matrigel Basement-membrane Matrix (Corning Inc., New York, NY, USA) using 96-well Angiogenesis μ-plates (ibidi GmbH, Munich, Germany) as described before.[38] “Sandwich” assays in short: bottom wells of cooled Angiogenesis plates were filled with 10 μL 4 mg/mL Matrigel, centrifuged for 20 min 200 g and incubated at 37°C temperature for approximately 30–60 min or until the ECM had polymerized. 1,000–1,500 cells were mixed in 2 mg/mL ECM-medium, and 20 μL of cell suspension was added in each well. The plates were centrifuged for 10 min at 100 g, or until the cells had settled on top of the lower ECM. Finally, the outer wells and side reservoirs were filled with water for humidification, and the culture plates placed into the incubator for 3–4 h or overnight. The following day, 60 μL of cell culture medium were added; refreshed every third day by carefully aspirating the medium. This “sandwich” setting allows almost unifocal alignment of cells and 3D structures in a single optical plane, thus reducing the time required for confocal stack imaging.
(§4) All control compounds were purchased from Selleck (Munich, Germany), except for staurosporine (Sigma-Aldrich, St. Louis, MO, USA) and Y-27632 (Tocris, Bristol, UK) and dissolved in dimethyl sulfoxide (DMSO) as a vehicle at 10 mM. In the primary and secondary 3D screens, experimental and control compound exposures were performed in triplicates. Four concentrations for each compound were applied (0.03, 0.1, 0.3 and 1 μM). Compound treatments were initiated four days after cell embedding, and continued for six days after which spheroids were stained and imaged.
(§5) Supplementary file pone.0126111.s004.eps: S4 Fig Secondary screens. Dendrograms for A) LNCaP, B) LAPC-4, and C) Ep156T betulin screens in 3D culture have been constructed using three main read-outs: spheroid size, spheroid complexity, and cell death. […] (EPS) Click here for additional data file.

[3] = tested on: PC-3, LNCaP, LAPC-4, Ep156T; assay: Primary and secondary 3D screens combined across the cell line panel; conditions: cell lines other than PC-3, 3D, 300 nM or lower (except compound 15)
Description: Fig 5 Secondary 3D screens. Experimental betulin derivatives and control compounds were tested across a panel of prostate cancer lines (LNCaP, LAPC-4) and non-transformed, prostate epithelial cells (EP156T) in 3D culture. A) The dendrogram is based on three main morphological parameters and combines all data from primary and secondary 3D screens. Effective compound treatments are indicated in red and yellow, yellow being the most invasion-specific. B) Boxplots showing the impact of selected compounds on spheroid size (Area). Data scaling: as described in Fig 4 C) Effects of all betulin derivatives and control compounds on cell death (number of dead cells).
In order to assist functional categorization of our betulin derivatives, we combined all data into a single dendrogram, shown in Fig 5A. In addition, multiparametric representation of all experimental data as a single heatmap is highly informative (S5 Fig) and a potent way to illustrate the effects of compounds on growth, structural complexity and cell death across multiple cell lines. […] However, at lower concentrations, these compounds may act as potent and specific inhibitors of cell invasion and motility.
Supplementary file pone.0126111.s005.eps: S5 Fig Primary and secondary screens. […] The main read-outs (Area = Size, Complexity = Invasiveness, Red = Cell death) are shown in their own columns. Data scaling: DMSO control has been given a value 0 whereas paclitaxel control is valued -100 or 100 depending on the read-out. Color key is located in the upper right corner. (EPS) Click here for additional data file.
Supplementary file pone.0126111.s006.tif: S6 Fig Confocal images from primary and secondary betulin screens. Viable cells have been stained with calcein AM (green) and dead cells with ethidium homodimer-2 (red) (5× objective, maximum intensity projections, scale bar = 100 μm). (TIF) Click here for additional data file.

[4] = tested on: LAPC-4; assay: Secondary 3D screen (spheroid size, complexity, cell death); conditions: yellow and red clusters
Text: as §1, §2, §3, §4, §5

[5] = tested on: actin cytoskeleton of PC-3, LNCaP and Ep156T spheroids; assay: F-actin cytoskeleton (phalloidin staining) in 3D spheroids; conditions: after 48 hours of exposure; seen in Ep156T acini and PC-3 spheroids, not LNCaP
Text: […] […] For phenotypic comparisons, we tested a panel of reference compounds targeting Akt, Rac, ROCK, Src, and other pathways, broadly linked to the actin cytoskeleton.
Fig 8 3D morphologies of prostate spheroids, exposed to selected betulin derivatives and captured with a confocal microscope. Actin cytoskeleton (filamentous or F-actin) is stained green (phalloidin), nuclei with a red dye (confocal microscope images, 40× objective, scale bar shown for each panel on the right lower corner).

[6] = tested on: LNCaP organoids; assay: Secondary 3D screen (spheroid size, complexity, cell death); conditions: dendrogram clusters
Text: as §1, §2, §3, §4, §5

| SMILES | anti-invasive effects in 3D culture (in words) ([1]; 6 days treatment) | effects on the other cell lines at anti-invasive concentrations [3] | efficacy in 3D LAPC-4 culture (dendrogram clusters) [4] | organization of actin cytoskeleton in 3D spheroids [5] | also measured |
| --- | --- | --- | --- | --- | --- |
| C=C(C)[C@@H]1CC[C@]2(C(=O)O)CC[C@]3(C)C(CCC4[C@@]5(C)CCC(=O)C(C)(C)C5CC[C@]43C)C12 (stereo partly drawn) [Compound 2, betulonic acid] | did not show significant anti-invasive effects |  |  |  | response of Ep156T in 3D culture [2]: responded to betulonic acid |
| CC(C)[C@@H]1CC[C@]2(C(=O)O)CC[C@]3(C)C(CCC4[C@@]5(C)CCC(=O)C(C)(C)C5CC[C@]43C)C12 (stereo partly drawn) [Compound 3] | one of the most potent anti-invasive, growth inhibitory agents | no noticeable effects on the other cell lines | most active |  | concentration at which anti-invasive effects are seen in 3D ([1]; 6 days treatment): ≤ 300 nM |
| C=C(C)[C@@H]1CC[C@]2(C(=O)O)CC[C@]3(C)C(CCC4[C@@]5(C)Cc6nccnc6C(C)(C)C5CC[C@]43C)C12 (stereo partly drawn) [Compound 15] | most potent anti-invasive effects | no noticeable effects on the other cell lines |  | effectively disrupted the organization of actin cytoskeleton | concentration with strong anti-invasive effects in 3D ([1]; 6 days treatment): 1.0 µM; growth inhibition in 3D ([1]; at 1.0 μM): without any growth inhibition |
| CNC(=O)c1ccc(N2C(=S)N(c3ccc(C#N)c(C(F)(F)F)c3)C(=O)C2(C)C)cc1F [enzalutamide, reference compound] |  |  | efficacy of all positive controls |  | effect on morphometric measures (area, complexity, dead cells) ([1]; paclitaxel at 30 and 100 nM): no noticeable effect; among the effective treatments in 3D LNCaP organoids [6]: among the effective treatments |
| CN[C@@H]1C[C@H]2O[C@@](C)([C@@H]1OC)n1c3ccccc3c3c4c(c5c6ccccc6n2c5c31)C(=O)NC4 [staurosporine, reference compound] |  |  |  | affected the cytoskeleton in a comparable fashion |  |
